Laboratory results published in paper PMC6616570, “Discovery of novel oestrogen receptor α agonists and antagonists by screening a revisited privileged structure moiety for nuclear receptors” (Scientific Reports, 2019).
“Also recorded” adds a separate entry of the source. Where two headings read alike, the source gives them in different places.

Columns and labels:
[1] = target: T1, ERα (Homo sapiens, UniProt P03372); test: Competitive binding assay using [3H]E2 against GST-fused ERα LBD
T1 construct: the ERα LBD was amplified by polymerase chain reaction and subcloned into the pGEX-6P-1 vector; made in house; host or cells: Escherichia coli BL21α
T1 sequence (P03372 311-547 limits assumed): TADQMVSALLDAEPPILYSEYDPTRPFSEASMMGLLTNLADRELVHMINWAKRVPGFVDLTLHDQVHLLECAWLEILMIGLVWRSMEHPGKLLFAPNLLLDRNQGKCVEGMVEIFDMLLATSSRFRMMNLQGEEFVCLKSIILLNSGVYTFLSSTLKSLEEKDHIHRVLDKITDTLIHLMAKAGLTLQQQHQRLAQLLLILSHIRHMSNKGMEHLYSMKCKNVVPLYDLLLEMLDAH
Excerpt: The ERα cDNA clone was purchased from OriGene Technologies, Inc. (Rockville, MD, USA). For construction of the expression plasmid, the ERα LBD was amplified by polymerase chain reaction and subcloned into the pGEX-6P-1 vector (GE Healthcare, Chicago, IL, USA) to obtain as a GST-fused protein. The GST-fused ERα -LBD was expressed in Escherichia coli BL21α cells and purified using Glutathione-Sepharose 4B (GE Healthcare), followed by gel filtration on a Sephadex G-10 column (GE Healthcare).
We performed the radioligand binding assays for ERα according to previously reported by method. […] GST-ERα-LBD (20 ng) was incubated with a series of [^3H]E2 (0.1–30 nM) in a total volume of 100 μL of binding buffer [10% glycerol, 10 mM Tris, 1 mM EGTA, 1 mM EDTA, 1 mM sodium vanadate (V), 0.5 mM phenylmethylsulfonyl fluoride, and 0.2 mM leupeptin (pH 7.4)] for 2 h at 20 °C in order to estimate total binding. Specific binding was calculated by subtracting the nonspecific binding determined by addition of 10 μM non-radiolabeled E2 to another set of working solutions from the observed total binding. After incubation, free radioligand was removed by addition and incubation of 100 μL 0.4% dextran-coated charcoal (Sigma-Aldrich) in phosphate-buffered saline (PBS; pH 7.4) on ice for 10 min. After centrifugation for 10 min at 15,000 rpm, the radioactivity of each supernatant was measured using a liquid scintillation counter (LS6500; Beckman Coulter, Fullerton, CA, USA). The data of the calculated specific binding of [^3H]E2 were assessed by Scatchard plot analysis.
The binding affinities of the test compounds were evaluated by competitive binding assays. Each chemical was dissolved in DMSO to prepare a 1.0-mM stock solution, followed by subsequent incubation of serial dilutions (1 pM to 10 μM) with GST- ERα-LBD (20 ng) and [^3H]E2 (5 nM, final) for 2 hrs at 20 °C to assess their ability to hinder the binding of [^3H]E2. Free radioligand was absorbed by 0.4% dextran-coated charcoal for the saturation binding assay and removed by the vacuum filtration system using a 96-well filtration plate (MultiScreenHTS HV; […] pore size; Merck KGaA, Darmstadt, Germany). The radioactivities of the eluents were measured using a TopCount NXT system (PerkinElmer) for 3 min/well.

[2] = target: T2, ERα (Homo sapiens, UniProt P03372); test: Luciferase-reporter assay for agonist activity in transiently transfected HeLa cells; assay type: cell-based; conditions: for ERα agonist / transcriptional activity (in words): reporter-gene assay, 0.1-10 μM
T2 construct: expressed in transfected cells; host or cells: HeLa cells
T2 sequence (P03372 1-595): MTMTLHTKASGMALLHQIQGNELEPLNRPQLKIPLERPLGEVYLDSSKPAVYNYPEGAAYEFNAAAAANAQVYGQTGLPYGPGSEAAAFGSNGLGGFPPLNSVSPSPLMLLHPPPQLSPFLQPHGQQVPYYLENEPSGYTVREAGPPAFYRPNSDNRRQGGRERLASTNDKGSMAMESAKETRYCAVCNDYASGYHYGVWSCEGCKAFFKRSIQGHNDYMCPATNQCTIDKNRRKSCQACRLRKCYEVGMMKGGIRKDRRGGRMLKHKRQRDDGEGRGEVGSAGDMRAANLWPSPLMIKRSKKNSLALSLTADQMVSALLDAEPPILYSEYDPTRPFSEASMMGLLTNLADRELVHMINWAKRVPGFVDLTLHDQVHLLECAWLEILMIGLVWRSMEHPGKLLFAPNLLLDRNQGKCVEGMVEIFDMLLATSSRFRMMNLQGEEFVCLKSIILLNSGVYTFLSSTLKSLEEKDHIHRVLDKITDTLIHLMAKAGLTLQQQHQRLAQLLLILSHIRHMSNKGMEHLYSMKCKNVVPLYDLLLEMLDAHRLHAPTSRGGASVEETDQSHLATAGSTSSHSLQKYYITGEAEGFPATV
Procedure: HeLa cells were maintained in Eagle’s minimum essential medium (MEM; Nissui Pharmaceutical Co., Ltd, Tokyo, Japan) supplemented with 10% (v/v) foetal bovine serum treated with dextran-coated charcoal at 37 °C under 5% CO2. To analyse the agonist activity, HeLa cells were incubated at a density of 5 × 10^5 cells per 60-mm dish for 24 h, followed by transfection of 3 μg of the reporter plasmid (3 × ERE/pGL4.23) and 1 μg of the ERα expression plasmid (ERα/pcDNA3.1) using Lipofectamine LTX reagent (Thermo Fisher Scientific, Waltham, MA, USA) according to the manufacturer’s instructions. After 24 h, cells were harvested, suspended in Eagle’s MEM, and seeded into 96-well plates at 5 × 10^4 cells/well, followed by treatment with a series of the test compounds diluted with 1% bovine serum albumin (BSA)/PBS (v/v) to prepare different concentrations (0–10 μM). After a 24-h incubation, luciferase activity was measured using a Luciferase Assay system (Promega, Madison, WI, USA) according to the manufacturer’s instructions. […] Cells treated only with 1% BSA/PBS were used as a vehicle control. Each assay was performed in triplicate and repeated at least three times.

[3] = target: T2, ERα; test: Luciferase-reporter assay for antagonist activity in the presence of E2, HeLa cells; assay type: cell-based; conditions: for ERα antagonist activity against E2-induced transcription (in words): 1 pM to 10 μM compound in a solution of E2 (1 nM); for reduction of E2-mediated ERα activity: highest concentration, 10 μM
Procedure: HeLa cells were maintained in Eagle’s minimum essential medium (MEM; Nissui Pharmaceutical Co., Ltd, Tokyo, Japan) supplemented with 10% (v/v) foetal bovine serum treated with dextran-coated charcoal at 37 °C under 5% CO2. To analyse the agonist activity, HeLa cells were incubated at a density of 5 × 10^5 cells per 60-mm dish for 24 h, followed by transfection of 3 μg of the reporter plasmid (3 × ERE/pGL4.23) and 1 μg of the ERα expression plasmid (ERα/pcDNA3.1) using Lipofectamine LTX reagent (Thermo Fisher Scientific, Waltham, MA, USA) according to the manufacturer’s instructions. After 24 h, cells were harvested, suspended in Eagle’s MEM, and seeded into 96-well plates at 5 × 10^4 cells/well, followed by treatment with a series of the test compounds diluted with 1% bovine serum albumin (BSA)/PBS (v/v) to prepare different concentrations (0–10 μM). After a 24-h incubation, luciferase activity was measured using a Luciferase Assay system (Promega, Madison, WI, USA) according to the manufacturer’s instructions. Briefly, cells were lysed using reporter lysis buffer (Promega), and luminescence was measured using a Wallace 1420 ARVOsx multilabel counter (PerkinElmer). Cells treated only with 1% BSA/PBS were used as a vehicle control. Each assay was performed in triplicate and repeated at least three times.
To evaluate antagonistic activity, we examined serial concentrations of test compounds (0–10 μM, final) in the presence of 1 nM or 10 nM concentrations of E2, which normally induces basal levels of ERα-related transcriptional activity.

[4] = contaminant of industrial BPA; cited from earlier work
[5] = tested on: oestrogen receptors (ERs); conditions: cited from earlier work
[6] = tested on: adult male mouse offspring; conditions: in utero exposure to 2 μg/kg/day or 20 μg/kg/day; cited from earlier work
[7] = [3H]17β-oestradiol radioligand (5 nM), GST-ERα-LBD, mean ± SE, read-out: Binding affinity (IC50)

Row | Compound | ERα agonist / transcriptional activity (in words) [2] | ERα antagonist activity against E2-induced transcription (in words) [3] | reduction of E2-mediated ERα activity [3] | IC50 [1, 7] [µM] | other results
1 | Oc1ccc(C(=C(Cl)Cl)c2ccc(O)cc2)cc1 [compound 1, bisphenol C] | apparent agonistic activity | did not observe any antagonistic activity | – | – | IC50 ([1]; [3H][…] radioligand (5 nM), GST-ERα-LBD, mean ± SE, read-out: Binding affinity (IC50)): 0.00281 ± 0.00061 µM; transcriptional activity relative to that of E2 ([2]; ERα reporter-gene assay): ~ 60%
2 | CC(C)CC(C)(c1ccc(O)cc1)c1ccc(O)cc1 [compound 2, 4,4′-(1,3-dimethylbuthylidene)bisphenol] | – | – | – | – | estrogenic activity higher than laboratory grade BPA [4]: 8 fold
3 | CC(C)(c1ccc(O)cc1)c1cccc(C(C)(C)c2ccc(O)cc2)c1 [compound 7, bisphenol M] | weak transcriptional activity | inhibited the agonist activity of 1 nM E2 in a dose-dependent manner | up to 90% | – | IC50 [1]: 0.0568 ± 0.0117 µM; ERα agonist / transcriptional activity (in words) ([2]; listed as BPM): almost no ERα-specific transcriptional activity
4 | CC(C)(c1ccc(O)cc1)c1ccc(C(C)(c2ccc(O)cc2)c2ccc(O)cc2)cc1 [compound 10, α,α,α′-tris(4-hydroxyphenyl)-1-ethyl-4-isopropylbenzene] | weak transcriptional activity; also recorded: almost no ERα-specific transcriptional activity | inhibited the agonist activity of 1 nM E2 in a dose-dependent manner | up to 90% | 0.0617 ± 0.0104 | –
5 | CC(C)(c1ccc(O)cc1)c1ccc(C(C)(C)c2ccc(O)cc2)cc1 [compound 11, bisphenol P] | weak transcriptional activity | inhibited the agonist activity of 1 nM E2 in a dose-dependent manner | up to 90% | 0.176 ± 0.035 | ERα agonist / transcriptional activity (in words) ([2]; listed as BPP): almost no ERα-specific transcriptional activity
6 | Nc1cc(C(c2ccc(O)c(N)c2)(C(F)(F)F)C(F)(F)F)ccc1O [compound 15, 2,2-bis(3-amino-4-hydroxyphenyl)hexafluoropropane] | apparent agonistic activity | – | – | 0.334 ± 0.112 | –
7 | CC1(C)CC2(CC(C)(C)c3ccc(O)cc3O2)Oc2cc(O)ccc21 [compound 16, spirobicromane] | weak transcriptional activity | inhibited the agonist activity of 1 nM E2 in a dose-dependent manner | up to 90% | 0.366 ± 0.02 | –
8 | Cc1cc(C(C)(C)c2ccc(C(C)(C)c3cc(C)c(O)c(C)c3)cc2)cc(C)c1O [compound 18, α,α′-bis(4-hydroxy-3,5-dimethylphenyl)-1,4-diisopropylbenzene] | weak transcriptional activity | inhibited the agonist activity of 1 nM E2 in a dose-dependent manner | up to 90% | 0.733 ± 0.628 | –
9 | Nc1ccc(Oc2ccc(C(c3ccc(Oc4ccc(N)cc4)cc3)(C(F)(F)F)C(F)(F)F)cc2)cc1 [compound 19, 2,2-bis[4-(4-aminophenoxy)phenyl]hexafluoropropane] | weak transcriptional activity | – | – | 1.03 ± 0.375 | –
10 | CC(C)(c1ccc(O)cc1)c1ccc(O)cc1 [compound 21, bisphenol A] | apparent agonistic activity | – | – | – | affinity for ERs weaker than 17β-oestradiol (E2) [5]: > 1,000 fold; effect on prostate in adult male offspring (in words) [6]: increases prostate size and weight
11 | Oc1ccc(C2(c3ccc(O)cc3)c3ccccc3-c3ccccc32)cc1 [compound 22, 9,9-bis(4-hydroxyphenyl)fluorine] | weak transcriptional activity | – | – | 2.23 ± 0.202 | binding to the ERα LBD (in words) ([1]; competitive binding assay using [3H]E2): directly binds to the ERα LBD
